This passage reports EC50 results from patent publication US20100272680A1, “Piperidinyl Cyclic Amido Antiviral Agents” (priority 2009, published 2010).

The structures appear in SMILES notation.

For one test, the system named is HCV Genotype 1B Replicon. Description: Replicon assay, genotype 1b subgenomic replicon (ET cell line), luciferase readout. The format is cell-based. The note with it: Hepatitis C virus, 48 h, Table 3; luciferase activity after 48 hours. Here is the method: (§1) Compounds were assayed for activity against HCV using the genotype 1a and 1b subgenomic replicon model systems. Stable cell lines bearing the genotype 1a and 1b replicons were used for screening of compounds. Both replicons are bicistonic and contain the firefly luciferase gene. The ET cell line is stably transfected with RNA transcripts harboring a I389luc-ubi-neo/NS3-3′/ET replicon with firefly luciferase-ubiquitin-neomycin phosphotransferase fusion protein and EMCV-IRES driven NS3-5B polyprotein containing the cell culture adaptive mutations (E1202G; T12801; K1846T) (Krieger at al, 2001 and unpublished). The genotype 1a replicon is a stable cell line licensed from Apath LLC, modified to contain the firefly luciferase gene. The cells were grown in DMEM, supplemented with 10% fetal calf serum, 2 mM Glutamine, Penicillin (100 IU/mL)/Streptomycin (100 μg/mL), 1× nonessential amino acids, and 250-500 μg/mL G418 (“Geneticin”). They were all available through Life Technologies (Bethesda, Md.). The cells were plated at 0.5×10^4 cells/well in 384 well plates containing compounds. The final concentration of compounds ranged between 0.03 μM to 50 μm and the final DMSO concentration of 0.5-1%.
(§2) Luciferase activity was measured 48 hours later by adding a Steady glo (Promega, Madison, Wis.). Percent inhibition of replication data was plotted relative to no compound control. Under the same condition, cytotoxicity of the compounds was determined using cell titer glo (Promega, Madison, Wis). IC50s were determined from a 10 point dose response curve using 3-4-fold serial dilution for each compound, which spans a concentration range >1000 fold. BioAssay determines the level of inhibition for each compound by normalizing cross-talk corrected plate values against the negative […] controls to determine Percent Inhibition:
(§3) These normalized values are exported to EC50 where they are plotted against the molar compound concentrations using the standard four parameter logistic equation: […]
(§4) Some EC50 measurements were repeated a second time and for both 1A and 1B genotypes after those reported in Table 2 for compounds 101-108 and the repeated data was reported in Table 3.

The next test deals with HCV Genotype 1A Replicon. Description: Replicon assay, genotype 1a subgenomic replicon, luciferase readout. The format is cell-based. The note with it: Hepatitis C virus, 48 h, Table 3; luciferase activity after 48 hours. Here is the method:
as §1, §2, §3, §4
In general terms: In antiviral work, replicon cells carry a viral genome segment that copies itself.

With `O=C(c1nc2c(C(F)(F)F)cc(C3CCOC3)cn2c1Cl)N1CCC(N2CCOC2=O)CC1` (centres unmarked) [Compound 137, 3-(1-{[3-chloro-6-(tetrahydro-3-furanyl)-8-(trifluoromethyl)imidazo[1,2-a]pyridin-2-yl]carbonyl}-4-piperidinyl)-1,3-oxazolidin-2-one], the EC50 (usually the concentration that produces a half-maximal response) in the test on HCV Genotype 1B Replicon worked out at 1270 nM; in the test with HCV Genotype 1A Replicon it was 310 nM.
On the same counts, the results for `CC(C)Oc1cc(C(F)(F)F)c2nc(C(=O)N3CCC(N4CCOC4=O)CC3)c(Cl)n2c1` [Compound 138, 3-(1-{[3-chloro-6-[(1-methylethyl)oxy]-8-(trifluoromethyl)imidazo[1,2-a]pyridin-2-yl]carbonyl}-4-piperidinyl)-1,3-oxazolidin-2-one] are 420 nM and 280 nM.
As to `O=C(c1nc2c(C(F)(F)F)cc(-n3ccnc3)cn2c1Cl)N1CCC(N2CCOC2=O)CC1` [Compound 139, 3-(1-{[3-chloro-6-(1H-imidazol-1-yl)-8-(trifluoromethyl)imidazo[1,2-a]pyridin-2-yl]carbonyl}-4-piperidinyl)-1,3-oxazolidin-2-one], the EC50 was at least 5010 nM in the test with HCV Genotype 1B Replicon and 2660 nM in the test on HCV Genotype 1A Replicon.
Taken in the same sequence, the figures for `CC(C)Cc1cc(C(F)(F)F)c2nc(C(=O)N3CCC(N4C(=O)COC4=O)CC3)c(Cl)n2c1` [Compound 140, 3-(1-{[3-chloro-6-(2-methylpropyl)-8-(trifluoromethyl)imidazo[1,2-a]pyridin-2-yl]carbonyl}-4-piperidinyl)-1,3-oxazolidine-2,4-dione] were 150 nM and 50 nM.
Taken in the same sequence, the figures for `CCC(C)c1cc(C(F)(F)F)c2nc(C(=O)N3CCC(N4CCOC4=O)CC3)c(Cl)n2c1` (centres unmarked) [Compound 141, 3-(1-{[3-chloro-6-(1-methylpropyl)-8-(trifluoromethyl)imidazo[1,2-a]pyridin-2-yl]carbonyl}-4-piperidinyl)-1,3-oxazolidin-2-one] were 550 nM and 160 nM.
On to `O=C(c1nc2c(C(F)(F)F)cc(Br)cn2c1Cl)N1CCC(N2C(=O)COC2=O)CC1` [Compound 142, 3-(1-{[6-bromo-3-chloro-8-(trifluoromethyl)imidazo[1,2-a]pyridin-2-yl]carbonyl}-4-piperidinyl)-1,3-oxazolidine-2,4-dione], for which the EC50 with HCV Genotype 1B Replicon and in the test on HCV Genotype 1A Replicon was 70 nM each time.
In the case of `O=C(c1nc2c(C(F)(F)F)cc(Br)cn2c1Cl)N1CCC(N2CCCC2=O)CC1` [Compound 143, 1-(1-{[6-bromo-3-chloro-8-(trifluoromethyl)imidazo[1,2-a]pyridin-2-yl]carbonyl}-4-piperidinyl)-2-pyrrolidinone], the results for the EC50 in the test with HCV Genotype 1B Replicon and in the test on HCV Genotype 1A Replicon were 200 nM and 480 nM, respectively.
On the same counts, the results for `O=C(c1nc2c(C(F)(F)F)cc(OC(F)F)cn2c1Cl)N1CCC(N2CCOC2=O)CC1` [Compound 144, 3-(1-{[3-chloro-6-[(difluoromethyl)oxy]-8-(trifluoromethyl)imidazo[1,2-a]pyridin-2-yl]carbonyl}-4-piperidinyl)-1,3-oxazolidin-2-one] are 50 nM and 20 nM.
On the same counts, the results for `O=C(c1nc2c(C(F)(F)F)cc(OC(F)F)cn2c1Cl)N1CCC(N2C(=O)COC2=O)CC1` [Compound 145, 3-(1-{[3-chloro-6-[(difluoromethyl)oxy]-8-(trifluoromethyl)imidazo[1,2-a]pyridin-2-yl]carbonyl}-4-piperidinyl)-1,3-oxazolidine-2,4-dione] are 50 nM and 50 nM.
As for `O=C(c1nc2c(C(F)(F)F)cc(-c3ccco3)cn2c1Cl)N1CCC(N2CCOC2=O)CC1` [Compound 146, 3-(1-{[3-chloro-6-(2-furanyl)-8-(trifluoromethyl)imidazo[1,2-a]pyridin-2-yl]carbonyl}-4-piperidinyl)-1,3-oxazolidin-2-one], the concentration giving a half-maximal response (EC50) in the test on HCV Genotype 1B Replicon amounted to 30 nM; with HCV Genotype 1A Replicon, 20 nM.
Taken in the same sequence, the figures for `O=C(c1nc2c(C(F)(F)F)cc(-c3cc[nH]c3)cn2c1Cl)N1CCC(N2CCOC2=O)CC1` [Compound 147, 3-(1-{[3-chloro-6-(1H-pyrrol-3-yl)-8-(trifluoromethyl)imidazo[1,2-a]pyridin-2-yl]carbonyl}-4-piperidinyl)-1,3-oxazolidin-2-one] were 20 nM and 20 nM.
On the same counts, the results for `O=C(c1nc2c(C(F)(F)F)cc(-c3cn[nH]n3)cn2c1Cl)N1CCC(N2CCOC2=O)CC1` [Compound 148, 3-(1-{[3-chloro-6-(2H-1,2,3-triazol-4-yl)-8-(trifluoromethyl)imidazo[1,2-a]pyridin-2-yl]carbonyl}-4-piperidinyl)-1,3-oxazolidin-2-one] are 540 nM and 220 nM.
For `O=C(c1nc2c(C(F)(F)F)cc(-c3ncc[nH]3)cn2c1Cl)N1CCC(N2CCOC2=O)CC1` [Compound 149, 3-(1-{[3-chloro-6-(1H-imidazol-2-yl)-8-(trifluoromethyl)imidazo[1,2-a]pyridin-2-yl]carbonyl}-4-piperidinyl)-1,3-oxazolidin-2-one], the half-maximal effective concentration (EC50) with HCV Genotype 1B Replicon came out at 80 nM; with HCV Genotype 1A Replicon it was 2250 nM.
On the same counts, the results for `O=C(c1nc2c(C(F)(F)F)cc(-c3ccc[nH]3)cn2c1Cl)N1CCC(N2CCOC2=O)CC1` [Compound 150, 3-(1-{[3-chloro-6-(1H-pyrrol-2-yl)-8-(trifluoromethyl)imidazo[1,2-a]pyridin-2-yl]carbonyl}-4-piperidinyl)-1,3-oxazolidin-2-one] are 450 nM and 230 nM.
On the same counts, the results for `Cc1cc(C(F)(F)F)c2nc(C(=O)N3CCC(N4CCOC4=O)CC3)c(Cl)n2c1` [Compound 151, 3-(1-{[3-chloro-6-methyl-8-(trifluoromethyl)imidazo[1,2-a]pyridin-2-yl]carbonyl}-4-piperidinyl)-1,3-oxazolidin-2-one] are 500 nM and 650 nM.
With `CCc1cc(C(F)(F)F)c2nc(C(=O)N3CCC(N4CCOC4=O)CC3)c(Cl)n2c1` [Compound 152, 3-(1-{[3-chloro-6-ethyl-8-(trifluoromethyl)imidazo[1,2-a]pyridin-2-yl]carbonyl}-4-piperidinyl)-1,3-oxazolidin-2-one], the EC50 in the test with HCV Genotype 1B Replicon came out at 70 nM; in the test with HCV Genotype 1A Replicon it was 50 nM.
On the same counts, the results for `C=Cc1cc(C(F)(F)F)c2nc(C(=O)N3CCC(N4CCOC4=O)CC3)c(Cl)n2c1` [Compound 153, 3-(1-{[3-chloro-6-ethenyl-8-(trifluoromethyl)imidazo[1,2-a]pyridin-2-yl]carbonyl}-4-piperidinyl)-1,3-oxazolidin-2-one] are 70 nM and 80 nM.
With `CC(C)c1cc(C(F)(F)F)c2nc(C(=O)N3CCC(N4CCOC4=O)CC3)c(Cl)n2c1` [Compound 154, 3-(1-{[3-chloro-6-(1-methylethyl)-8-(trifluoromethyl)imidazo[1,2-a]pyridin-2-yl]carbonyl}-4-piperidinyl)-1,3-oxazolidin-2-one], the EC50 in the test with HCV Genotype 1B Replicon and in the test on HCV Genotype 1A Replicon was 20 nM throughout.
For the molecule `CC(O)c1cc(C(F)(F)F)c2nc(C(=O)N3CCC(N4CCOC4=O)CC3)c(Cl)n2c1` (centres unmarked) [Compound 155, 3-(1-{[3-chloro-6-(1-hydroxyethyl)-8-(trifluoromethyl)imidazo[1,2-a]pyridin-2-yl]carbonyl}-4-piperidinyl)-1,3-oxazolidin-2-one], the EC50 in the test with HCV Genotype 1B Replicon is 1080 nM; in the test with HCV Genotype 1A Replicon, 630 nM.
